From article PMC4340503 (Nature, 2008) come the findings set out here.

One test concerns the target AP2 core σ2V88D (UniProt P17427+P62743+P63010+P84092, V88D). The test is classed as binding. The following applies: pH 8.7.
For the next test, the target named is AP2 core σ2L103S (UniProt P17427+P62743+P63010+P84092, L103S). The test is classed as binding. Conditions: pH 8.7.

Where a SMILES comes first, the peptide text is derived from it. [ ]: non-standard residue; d: D form. The star is where a group is joined. X1 = CCCCCCCCCCCCCCCC(=O)OC[C@H](COP(=O)(O)OCCNC(=O)CCCc1ccc(N2C(=O)CC(*)C2=O)cc1)OC(=O)CCCCCCCCCCCCCCC; pS = N[C@@H](COP(=O)(O)O)C(=O)O

Sequence of AP2 core σ2V88D (P62743 whole entry V88D): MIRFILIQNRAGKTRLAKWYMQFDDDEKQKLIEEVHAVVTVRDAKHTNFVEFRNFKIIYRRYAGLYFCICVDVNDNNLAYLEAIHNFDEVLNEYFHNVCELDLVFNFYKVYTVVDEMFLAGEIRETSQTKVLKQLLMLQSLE
Sequence of AP2 core σ2V88D (P63010 1-591, stated change not applied): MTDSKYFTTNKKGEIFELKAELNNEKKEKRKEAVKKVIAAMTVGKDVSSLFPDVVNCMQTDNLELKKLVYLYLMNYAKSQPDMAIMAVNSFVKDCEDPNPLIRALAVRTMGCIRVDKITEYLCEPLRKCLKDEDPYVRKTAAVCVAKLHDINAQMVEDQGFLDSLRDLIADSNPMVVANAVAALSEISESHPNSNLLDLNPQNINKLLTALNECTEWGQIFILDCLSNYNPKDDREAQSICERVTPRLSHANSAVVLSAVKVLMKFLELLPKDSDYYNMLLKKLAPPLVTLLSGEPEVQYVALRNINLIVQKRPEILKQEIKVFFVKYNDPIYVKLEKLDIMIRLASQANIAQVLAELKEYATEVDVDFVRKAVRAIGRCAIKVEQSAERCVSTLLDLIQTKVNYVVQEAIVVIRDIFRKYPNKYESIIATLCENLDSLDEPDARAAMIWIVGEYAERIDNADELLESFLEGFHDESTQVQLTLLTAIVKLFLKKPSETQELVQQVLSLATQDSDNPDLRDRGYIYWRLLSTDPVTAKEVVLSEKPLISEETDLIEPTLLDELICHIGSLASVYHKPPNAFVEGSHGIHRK
Sequence of AP2 core σ2V88D (P84092 whole entry, stated change not applied): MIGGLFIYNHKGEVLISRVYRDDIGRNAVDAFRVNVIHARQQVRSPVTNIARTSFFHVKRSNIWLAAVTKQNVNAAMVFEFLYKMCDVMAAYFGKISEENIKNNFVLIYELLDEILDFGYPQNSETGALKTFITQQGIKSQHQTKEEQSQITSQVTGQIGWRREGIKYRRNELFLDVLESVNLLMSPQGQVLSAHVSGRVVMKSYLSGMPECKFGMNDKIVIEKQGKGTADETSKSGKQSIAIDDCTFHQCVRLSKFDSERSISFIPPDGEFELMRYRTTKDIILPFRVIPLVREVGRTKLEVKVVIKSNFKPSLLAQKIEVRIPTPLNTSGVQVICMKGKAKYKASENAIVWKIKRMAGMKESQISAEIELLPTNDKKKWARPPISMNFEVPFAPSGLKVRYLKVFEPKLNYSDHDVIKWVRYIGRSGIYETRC
Sequence of AP2 core σ2V88D (P17427 1-621): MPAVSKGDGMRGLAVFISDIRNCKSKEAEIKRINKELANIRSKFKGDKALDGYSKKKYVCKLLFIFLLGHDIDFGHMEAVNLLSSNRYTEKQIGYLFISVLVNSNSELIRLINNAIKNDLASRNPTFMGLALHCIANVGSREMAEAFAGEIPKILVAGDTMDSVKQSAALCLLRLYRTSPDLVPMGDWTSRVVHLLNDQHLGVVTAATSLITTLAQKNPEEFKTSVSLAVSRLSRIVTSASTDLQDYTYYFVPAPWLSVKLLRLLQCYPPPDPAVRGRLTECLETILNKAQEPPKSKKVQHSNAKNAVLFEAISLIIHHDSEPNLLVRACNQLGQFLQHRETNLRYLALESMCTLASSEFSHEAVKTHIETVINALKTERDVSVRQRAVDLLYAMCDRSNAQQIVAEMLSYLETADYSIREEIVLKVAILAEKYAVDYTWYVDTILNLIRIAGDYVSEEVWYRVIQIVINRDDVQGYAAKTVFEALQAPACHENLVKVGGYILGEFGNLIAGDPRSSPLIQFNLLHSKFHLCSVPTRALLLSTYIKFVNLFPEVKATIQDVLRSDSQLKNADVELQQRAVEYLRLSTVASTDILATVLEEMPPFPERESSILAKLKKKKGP
Sequence of AP2 core σ2L103S (P62743 whole entry L103S): as the sequence (P62743 whole entry V88D) above, with D88V, L103S counted along it
Sequence of AP2 core σ2L103S (P84092 whole entry): as the sequence (P84092 whole entry, stated change not applied) above
Sequence of AP2 core σ2L103S (P17427 1-621): as the sequence (P17427 1-621) above
Sequence of AP2 core σ2L103S (P63010 1-591): as the sequence (P63010 1-591, stated change not applied) above

As for `CCCCCCCCCCCCCCCC(=O)OC[C@H](COP(=O)(O)OCCNC(=O)CCCc1ccc(N2C(=O)CC(SC[C@H](N)C(=O)N[C@@H](Cc3c[nH]cn3)C(=O)N[C@@H](CCCNC(=N)N)C(=O)N[C@@H](CCCNC(=N)N)C(=O)N[C@@H](CCCNC(=N)N)C(=O)N[C@@H](CCC(N)=O)C(=O)N[C@@H](C)C(=O)N[C@@H](CCC(=O)O)C(=O)N[C@@H](CCCNC(=N)N)C(=O)N[C@@H](CCSC)C(=O)N[C@@H](COP(=O)(O)O)C(=O)N[C@@H](CCC(N)=O)C(=O)N[C@H](C(=O)N[C@@H](CCCCN)C(=O)N[C@@H](CCCNC(=N)N)C(=O)N[C@@H](CC(C)C)C(=O)N[C@@H](CC(C)C)C(=O)N[C@@H](CO)C(=O)N[C@@H](CCC(=O)O)C(=O)N[C@@H](CCCCN)C(=O)O)[C@@H](C)CC)C2=O)cc1)OC(=O)CCCCCCCCCCCCCCC` (some centres unmarked) [phospho-CD4 Q-peptide] (H-C(X1)HRRRQAERM[pS]QIKRLLSEK-OH; N-terminus and C-terminus assumed), the KD entry on AP2 core σ2V88D and at AP2 core σ2L103S was “below detectable levels” each time.
